Measurements published in PubChem BioAssay (NCI).
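Each compound was tested at five concentrations against cells in 96-well plates for 48 hours. TGI denotes the concentration required for complete inhibition of growth.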

Experiments:
Assay in all cases: growth of human tumour cells (NCI), 48 h
SK-MEL-5 melanoma = test system: SK-MEL-5 melanoma
CAKI-1 renal = test system: CAKI-1 renal
ACHN renal = test system: ACHN renal
PC-3 prostate = test system: PC-3 prostate
A549 NSCLC = test system: A549 NSCLC
DU-145 prostate = test system: DU-145 prostate
SN12C renal = test system: SN12C renal
KM12 colon = test system: KM12 colon
SK-MEL-28 melanoma = test system: SK-MEL-28 melanoma
COLO 205 colon = test system: COLO 205 colon
LOX IMVI melanoma = test system: LOX IMVI melanoma
HCT-15 colon = test system: HCT-15 colon
BT-549 breast = test system: BT-549 breast
MDA-MB-435 = test system: MDA-MB-435
OVCAR-4 ovarian = test system: OVCAR-4 ovarian
HOP-62 NSCLC = test system: HOP-62 NSCLC
RPMI-8226 leukemia = test system: RPMI-8226 leukemia
SW-620 colon = test system: SW-620 colon
U251 CNS = test system: U251 CNS
MOLT-4 leukemia = test system: MOLT-4 leukemia
SNB-19 CNS = test system: SNB-19 CNS
UACC-62 melanoma = test system: UACC-62 melanoma
HOP-92 NSCLC = test system: HOP-92 NSCLC
OVCAR-5 ovarian = test system: OVCAR-5 ovarian
A498 renal = test system: A498 renal
K-562 leukemia = test system: K-562 leukemia
UO-31 renal = test system: UO-31 renal
EKVX NSCLC = test system: EKVX NSCLC
HT29 colon = test system: HT29 colon
SF-295 CNS = test system: SF-295 CNS
MALME-3M melanoma = test system: MALME-3M melanoma
NCI/ADR-RES ovarian = test system: NCI/ADR-RES ovarian
HS 578T breast = test system: HS 578T breast
OVCAR-3 ovarian = test system: OVCAR-3 ovarian
M14 melanoma = test system: M14 melanoma
NCI-H23 lung = test system: NCI-H23 lung
786-0 renal = test system: 786-0 renal
UACC-257 melanoma = test system: UACC-257 melanoma
RXF 393 renal = test system: RXF 393 renal
HCC-2998 colon = test system: HCC-2998 colon
HL-60(TB) leukemia = test system: HL-60(TB) leukemia
NCI-H460 lung = test system: NCI-H460 lung
IGROV1 ovarian = test system: IGROV1 ovarian
MCF7 breast = test system: MCF7 breast
HCT-116 colon = test system: HCT-116 colon
NCI-H522 lung = test system: NCI-H522 lung
CCRF-CEM leukemia = test system: CCRF-CEM leukemia
MDA-N = test system: MDA-N
SR leukemia = test system: SR leukemia
SF-268 CNS = test system: SF-268 CNS
OVCAR-8 ovarian = test system: OVCAR-8 ovarian
MDA-MB-231 breast = test system: MDA-MB-231 breast
SF-539 CNS = test system: SF-539 CNS
SK-OV-3 ovarian = test system: SK-OV-3 ovarian
NCI-H226 lung = test system: NCI-H226 lung
SNB-75 CNS = test system: SNB-75 CNS
TK-10 renal = test system: TK-10 renal
T-47D breast = test system: T-47D breast
SK-MEL-2 melanoma = test system: SK-MEL-2 melanoma

Q: Which TGI (SK-MEL-5 melanoma) does the source give for O=c1c(Nc2ccccc2)cn(CCOc2ccccc2)c(=O)n1CCOc1ccccc1 here?
A: > 100 µM

Q: What about the TGI (CAKI-1 renal) of the same compound?
A: > 100 µM

Q: What about the TGI (ACHN renal) of the same compound?
A: > 100 µM

Q: And the TGI (PC-3 prostate)?
A: > 100 µM

Q: And the TGI (A549 NSCLC)?
A: > 100 µM

Q: What about the TGI (DU-145 prostate) of the same compound?
A: > 100 µM

Q: What about the TGI (SN12C renal) of the same compound?
A: > 100 µM

Q: And the TGI (KM12 colon)?
A: > 100 µM

Q: What about the TGI (SK-MEL-28 melanoma) of the same compound?
A: > 100 µM

Q: And the TGI (COLO 205 colon)?
A: > 100 µM

Q: What about the TGI (LOX IMVI melanoma) of the same compound?
A: > 100 µM

Q: And the TGI (HCT-15 colon)?
A: > 100 µM

Q: And the TGI (BT-549 breast)?
A: 72.3 µM

Q: What about the TGI (MDA-MB-435) of the same compound?
A: > 100 µM

Q: And the TGI (OVCAR-4 ovarian)?
A: 54.4 µM

Q: What about the TGI (HOP-62 NSCLC) of the same compound?
A: 41.3 µM

Q: What about the TGI (RPMI-8226 leukemia) of the same compound?
A: > 100 µM

Q: And the TGI (SW-620 colon)?
A: > 100 µM

Q: And the TGI (U251 CNS)?
A: > 100 µM

Q: And the TGI (MOLT-4 leukemia)?
A: > 100 µM

Q: What about the TGI (SNB-19 CNS) of the same compound?
A: > 100 µM

Q: What about the TGI (UACC-62 melanoma) of the same compound?
A: > 100 µM

Q: What about the TGI (HOP-92 NSCLC) of the same compound?
A: 83.4 µM

Q: What about the TGI (OVCAR-5 ovarian) of the same compound?
A: > 100 µM

Q: What about the TGI (A498 renal) of the same compound?
A: > 100 µM

Q: And the TGI (K-562 leukemia)?
A: > 100 µM

Q: What about the TGI (UO-31 renal) of the same compound?
A: > 100 µM

Q: And the TGI (EKVX NSCLC)?
A: > 100 µM

Q: And the TGI (HT29 colon)?
A: > 100 µM

Q: And the TGI (SF-295 CNS)?
A: > 100 µM

Q: And the TGI (MALME-3M melanoma)?
A: > 100 µM

Q: And the TGI (NCI/ADR-RES ovarian)?
A: > 100 µM

Q: What about the TGI (HS 578T breast) of the same compound?
A: 76.8 µM

Q: And the TGI (OVCAR-3 ovarian)?
A: > 100 µM

Q: And the TGI (M14 melanoma)?
A: > 100 µM

Q: And the TGI (NCI-H23 lung)?
A: > 100 µM

Q: And the TGI (786-0 renal)?
A: > 100 µM

Q: And the TGI (UACC-257 melanoma)?
A: > 100 µM

Q: And the TGI (RXF 393 renal)?
A: > 100 µM

Q: What about the TGI (HCC-2998 colon) of the same compound?
A: > 100 µM

Q: And the TGI (HL-60(TB) leukemia)?
A: > 100 µM

Q: What about the TGI (NCI-H460 lung) of the same compound?
A: > 100 µM

Q: And the TGI (IGROV1 ovarian)?
A: > 100 µM

Q: And the TGI (MCF7 breast)?
A: > 100 µM

Q: What about the TGI (HCT-116 colon) of the same compound?
A: > 100 µM

Q: And the TGI (NCI-H522 lung)?
A: 99.5 µM

Q: What about the TGI (CCRF-CEM leukemia) of the same compound?
A: > 100 µM

Q: And the TGI (MDA-N)?
A: > 100 µM

Q: What about the TGI (SR leukemia) of the same compound?
A: > 100 µM

Q: And the TGI (SF-268 CNS)?
A: 67.6 µM

Q: With CC(C)NC(=O)OCc1c(COC(=O)NC(C)C)c(-c2cc[n+](COC(=O)CC(C)(C)C)cc2)n2c1CCC2 as the compound, how does the TGI (OVCAR-8 ovarian) read?
A: > 100 µM

Q: What about the TGI (SK-MEL-5 melanoma) of the same compound?
A: > 100 µM

Q: And the TGI (CAKI-1 renal)?
A: > 100 µM

Q: What about the TGI (PC-3 prostate) of the same compound?
A: > 100 µM

Q: And the TGI (A549 NSCLC)?
A: > 100 µM

Q: And the TGI (SN12C renal)?
A: > 100 µM

Q: And the TGI (MDA-MB-231 breast)?
A: > 100 µM

Q: What about the TGI (COLO 205 colon) of the same compound?
A: > 100 µM

Q: What about the TGI (HCT-15 colon) of the same compound?
A: > 100 µM

Q: And the TGI (BT-549 breast)?
A: > 100 µM

Q: What about the TGI (OVCAR-4 ovarian) of the same compound?
A: > 100 µM

Q: And the TGI (HOP-62 NSCLC)?
A: > 100 µM

Q: What about the TGI (RPMI-8226 leukemia) of the same compound?
A: > 100 µM

Q: What about the TGI (SF-539 CNS) of the same compound?
A: > 100 µM

Q: What about the TGI (SW-620 colon) of the same compound?
A: > 100 µM

Q: And the TGI (U251 CNS)?
A: > 100 µM

Q: And the TGI (MOLT-4 leukemia)?
A: > 100 µM

Q: What about the TGI (SNB-19 CNS) of the same compound?
A: > 100 µM

Q: And the TGI (HOP-92 NSCLC)?
A: > 100 µM

Q: And the TGI (A498 renal)?
A: > 100 µM

Q: What about the TGI (K-562 leukemia) of the same compound?
A: > 100 µM

Q: What about the TGI (UO-31 renal) of the same compound?
A: > 100 µM

Q: And the TGI (EKVX NSCLC)?
A: > 100 µM

Q: And the TGI (SF-295 CNS)?
A: > 100 µM

Q: What about the TGI (SK-OV-3 ovarian) of the same compound?
A: > 100 µM

Q: And the TGI (NCI/ADR-RES ovarian)?
A: > 100 µM

Q: What about the TGI (HS 578T breast) of the same compound?
A: > 100 µM

Q: What about the TGI (NCI-H226 lung) of the same compound?
A: > 100 µM

Q: What about the TGI (OVCAR-3 ovarian) of the same compound?
A: > 100 µM

Q: What about the TGI (M14 melanoma) of the same compound?
A: > 100 µM

Q: And the TGI (NCI-H23 lung)?
A: > 100 µM

Q: And the TGI (786-0 renal)?
A: > 100 µM

Q: And the TGI (UACC-257 melanoma)?
A: > 100 µM

Q: And the TGI (RXF 393 renal)?
A: > 100 µM

Q: And the TGI (HCC-2998 colon)?
A: > 100 µM

Q: What about the TGI (HL-60(TB) leukemia) of the same compound?
A: > 100 µM

Q: What about the TGI (IGROV1 ovarian) of the same compound?
A: > 100 µM

Q: And the TGI (MCF7 breast)?
A: > 100 µM

Q: What about the TGI (NCI-H522 lung) of the same compound?
A: > 100 µM

Q: What about the TGI (CCRF-CEM leukemia) of the same compound?
A: > 100 µM

Q: What about the TGI (MDA-N) of the same compound?
A: > 100 µM

Q: What about the TGI (SR leukemia) of the same compound?
A: > 100 µM

Q: Which results are given for NC(C/C=C/P(=O)(O)O)C(=O)O (centres undefined)?
A: TGI (OVCAR-8 ovarian): > 100 µM; TGI (SK-MEL-5 melanoma): > 100 µM; TGI (CAKI-1 renal): 32.8 µM; TGI (SNB-75 CNS): > 100 µM; TGI (TK-10 renal): > 100 µM; TGI (ACHN renal): > 100 µM; TGI (PC-3 prostate): > 100 µM; TGI (A549 NSCLC): > 100 µM; TGI (DU-145 prostate): > 100 µM; TGI (SN12C renal): > 100 µM; TGI (KM12 colon): > 100 µM; TGI (MDA-MB-231 breast): > 100 µM; TGI (SK-MEL-28 melanoma): > 100 µM; TGI (COLO 205 colon): > 100 µM; TGI (LOX IMVI melanoma): > 100 µM; TGI (HCT-15 colon): > 100 µM; TGI (T-47D breast): > 100 µM; TGI (MDA-MB-435): > 100 µM; TGI (OVCAR-4 ovarian): > 100 µM; TGI (SF-539 CNS): > 100 µM; TGI (SK-MEL-2 melanoma): > 100 µM; TGI (SW-620 colon): > 100 µM; TGI (U251 CNS): > 100 µM; TGI (MOLT-4 leukemia): > 100 µM; TGI (SNB-19 CNS): > 100 µM; TGI (UACC-62 melanoma): > 100 µM; TGI (HOP-92 NSCLC): > 100 µM; TGI (OVCAR-5 ovarian): > 100 µM; TGI (K-562 leukemia): > 100 µM; TGI (UO-31 renal): > 100 µM; TGI (EKVX NSCLC): > 100 µM; TGI (HT29 colon): > 100 µM; TGI (SF-295 CNS): > 100 µM; TGI (SK-OV-3 ovarian): > 100 µM; TGI (NCI/ADR-RES ovarian): > 100 µM; TGI (HS 578T breast): > 100 µM; TGI (OVCAR-3 ovarian): > 100 µM; TGI (M14 melanoma): > 100 µM; TGI (NCI-H23 lung): > 100 µM; TGI (UACC-257 melanoma): > 100 µM; TGI (RXF 393 renal): > 100 µM; TGI (HCC-2998 colon): > 100 µM; TGI (HL-60(TB) leukemia): > 100 µM; TGI (NCI-H460 lung): > 100 µM; TGI (IGROV1 ovarian): > 100 µM; TGI (MCF7 breast): > 100 µM; TGI (HCT-116 colon): > 100 µM; TGI (NCI-H522 lung): > 100 µM; TGI (CCRF-CEM leukemia): > 100 µM; TGI (MDA-N): > 100 µM; TGI (SR leukemia): > 100 µM; TGI (SF-268 CNS): > 100 µM
